{
  "source": "patent US7709645B2",
  "about": "“Pyrrolo-pyridine kinase modulators” (SGX Pharmaceuticals, Inc., priority 2004, dated 2010)",
  "data": [
    {"target": "T1, T315I mutant form of BCR-ABL in Ba/F3 cells (Homo sapiens, UniProt P00519, T315I)", "T1 construct": "expressed in transfected cells; host or cells: Ba/F3 cells; the other entry of the earlier key: BCR (P11274, Breakpoint cluster region protein)", "T1 sequence (P00519 242-493 T315I limits assumed)": "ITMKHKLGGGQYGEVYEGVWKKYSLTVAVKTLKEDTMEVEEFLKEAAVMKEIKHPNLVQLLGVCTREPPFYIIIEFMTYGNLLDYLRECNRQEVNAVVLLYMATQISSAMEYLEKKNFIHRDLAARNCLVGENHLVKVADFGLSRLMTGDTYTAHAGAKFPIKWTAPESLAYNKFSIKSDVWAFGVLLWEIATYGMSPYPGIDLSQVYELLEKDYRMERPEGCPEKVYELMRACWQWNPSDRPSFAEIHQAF", "test": "Abl_T315I p-ELISA Cellular Assay (BCR-ABL phospho-ELISA)", "format": "cell-based", "settings": "60-120 minutes incubation", "experimental": "Cells (Ba/F3 cells transfected with WT BCR-ABL, other kinases, or T315I, Y253F, M351T, E255K, or other mutant forms of BCR-ABL) were grown in the absence of IL-3 at least ½ week before the assay. The day before assay, the cells were fed with fresh media so that at the time of assay the cells were in log phase. Ba/F3 cells that had been grown in the absence of IL-3 for at least ½ week were resuspended in RPMI 1640 so that each well of a 96-well plate would contain approximately 200,000 cells. Cells were distributed in a 96-well plate containing serially diluted concentrations of test compounds. Cells were typically incubated with or without test compounds for 60-120 minutes at 5% CO2, 37° C. The incubation was performed with or without other additives such as 10% FCS or 50% human plasma. After incubation of compounds, lysis buffer was added and incubated for 10-15 minutes; the lysate was cleared by centrifugation.\nTo make the ELISA plate, commercially available Anti-ABL antibodies (e.g. (Ab-3, Calbiochem OP20) were prepared at a concentration of 0.125 μg/ml in coating buffer (0.1M Na-carbonate, pH 9.5), and plated at 10 ml per plate (12.5 μl 100 μg/ml Ab/10 ml). In a high binding multi-well plate, 100 μl Ab in coating buffer were added to each well, and each plate was covered with a plate seal and incubated overnight at 4° C.\nExcess antibody was removed and the ELISA plate was washed 3-4 times with 200 μl of wash buffer (0.05% Tween in PBS, pH 7.4). 150 μl of lysate (see above) were transferred to the ELISA plate. Plates were sealed and incubated 2 hours at room temperature. The detection antibody (e.g. HRP conjugated anti-pTyr or unconjugated α-p-Y 4G10, Upstate) was prepared in assay diluent. The antibody was diluted 1:1000 (stock=2 μg/μl, 200 μg in 100 μl; f.c.=2 μg/ml) in assay diluent and 10 ml of diluted antibody per plate were added. The lysate was removed from the ELISA plates, and wells were washed four times with 200 μl of wash buffer per well. 100 μl of detection antibody was added to each well; the plate was covered, and incubated 1 hr at room temperature (21° C.). Excess detection antibody was removed from the ELISA plates, and the wells were washed four times with 200 μl of wash buffer per well.\nIf necessary, (i.e. for unconjugated anti-pTyr antibody) secondary antibody (goat anti-rabbit HRP) was diluted 1:3000 in assay diluent (3.33 μl per 10 ml diluent) and added at 10 ml of diluted antibody per plate. Excess secondary antibody was removed from the ELISA plate, and the plate was washed four times with 200 μl per well of wash buffer.\nSubstrate Reagent A and Substrate Reagent B (Pierce Cat#37070 SuperSignal ELISA Pico Chemiluminescent Substrate) were added immediately before use (10 ml resultant solution per plate). 100 μl substrate were added per well, mixed for 1 minute, and chemiluminescent signal was measured with a luminometer.", "units": {"IC50": "nM"}, "values": [
      {"smiles": "c1cc2cc(-c3c[nH]c4ncc(-c5ccc6[nH]cnc6c5)cc34)ccc2[nH]1", "note": "[AE22]", "IC50": "100 to 1000"},
      {"smiles": "Oc1cccc(-c2cnc3[nH]cc(-c4ccc(O)c(F)c4)c3c2)c1", "note": "[AE48]", "IC50": "100 to 1000"},
      {"smiles": "CNC(=O)c1cncc(-c2cnc3[nH]cc(-c4ccccc4OC)c3c2)c1", "note": "[AE1]", "IC50": "< 100"},
      {"smiles": "CNC(=O)c1cc(-c2cnc3[nH]cc(-c4ccccc4OC)c3c2)cs1", "note": "[AE2]", "IC50": "100 to 1000"},
      {"smiles": "COc1ccccc1-c1c[nH]c2ncc(-c3cc[nH]c(=O)c3)cc12", "note": "[AE9]", "IC50": "100 to 1000"},
      {"smiles": "N#Cc1cc(-c2cnc3[nH]cc(-c4ccc5[nH]ccc5c4)c3c2)ccc1O", "note": "[AE20]", "IC50": "< 100"},
      {"smiles": "COc1ccccc1-c1c[nH]c2ncc(-c3ccc(O)c(CN4CCCN(C)CC4)c3)cc12", "note": "[AE41]", "IC50": "< 100"},
      {"smiles": "COc1ccccc1-c1c[nH]c2ncc(-c3ccc(S(N)(=O)=O)s3)cc12", "note": "[AE11]", "IC50": "100 to 1000"},
      {"smiles": "COc1ccccc1-c1c[nH]c2ncc(-c3csc(C(=O)N(C)C)c3)cc12", "note": "[AE3]", "IC50": "< 100"},
      {"smiles": "COc1cc(-c2cnc3[nH]cc(-c4ccc(O)cc4)c3c2)ccc1O", "note": "[AE58]", "IC50": "< 100"},
      {"smiles": "Nc1nc(-c2c[nH]c3ncc(-c4ccc5[nH]ccc5c4)cc23)cs1", "note": "[AE55]", "IC50": "< 100"},
      {"smiles": "O=C(c1cncc(-c2cnc3[nH]cc(-c4ccc5cc[nH]c5c4)c3c2)c1)N1CCOCC1", "note": "[AE14]", "IC50": "< 100"},
      {"smiles": "COc1ccccc1-c1c[nH]c2ncc(-c3cccc(S(C)(=O)=O)c3)cc12", "note": "[AE13]", "IC50": "100 to 1000"},
      {"smiles": "COc1cc(-c2cnc3[nH]cc(-c4ccccc4OC)c3c2)ccc1O", "note": "[AE64]", "IC50": "< 100"},
      {"smiles": "COc1ccccc1-c1c[nH]c2ncc(-c3cccc(C(=N)N4CCCCC4)c3)cc12", "note": "[AE42]", "IC50": "< 100"},
      {"smiles": "Oc1cccc(-c2cnc3[nH]cc(-c4ccn[nH]4)c3c2)c1", "note": "[AE49]", "IC50": "100 to 1000"}
    ]}
  ]
}
